Assay results reported in PubChem BioAssay AID330 (DTP/NCI, 2004).
Values joined by “and” are separate entries in the source; they are usually repeats but may differ in a detail not shown here. Identical values can stand only once. Inconclusive results and toxic doses are left out.

Test system: P388 leukemia ip, CD2F1 mice, survival T/C
Assay: NCI In Vivo Anticancer Drug Screen. Data for tumor model P388 Leukemia (intraperitoneal) in CD2F1 (CDF1) mice
Conditions: endpoint: median survival time, higher = longer survival
Protocol: The antitumor activity of compounds was measured in mice bearing transplantable tumors. Survival or tumor size were measured and the results are expressed as the measurement made in the treated group (T) divided by the measurement made in the vehicle treated control group (C). The tumor model used in this assay is P388 Leukemia (intraperitoneal) in CD2F1 (CDF1) mice

[1] = dose: 50.0 mg/kg/injection, schedule: Q01DX005 (ip), vehicle: saline with Tween-80
[2] = dose: 100.0 mg/kg/injection, schedule: Q01DX005 (ip), vehicle: saline with Tween-80
[3] = dose: 200.0 mg/kg/injection, schedule: Q01DX005 (ip), vehicle: saline with Tween-80
[4] = dose: 60.0 mg/kg/injection, schedule: Q01DX005 (ip), vehicle: saline with Tween-80
[5] = dose: 120.0 mg/kg/injection, schedule: Q01DX005 (ip), vehicle: saline with Tween-80
[6] = dose: 50.0 mg/kg/injection, schedule: Q01DX009 (ip), vehicle: saline
[7] = dose: 100.0 mg/kg/injection, schedule: Q01DX009 (ip), vehicle: saline
[8] = dose: 200.0 mg/kg/injection, schedule: Q01DX009 (ip), vehicle: saline
[9] = dose: 100.0 mg/kg/injection, schedule: Q01DX009 (ip), vehicle: saline with Tween-80
[10] = dose: 200.0 mg/kg/injection, schedule: Q01DX009 (ip), vehicle: saline with Tween-80
[11] = dose: 400.0 mg/kg/injection, schedule: Q01DX009 (ip), vehicle: saline with Tween-80
[12] = dose: 240.0 mg/kg/injection, schedule: Q01DX005 (ip), vehicle: saline with Tween-80
[13] = dose: 50.0 mg/kg/injection, schedule: Q01DX005 (ip), vehicle: Klucel (hydroxypropylcellulose) (HPC)
[14] = dose: 100.0 mg/kg/injection, schedule: Q01DX005 (ip), vehicle: Klucel (hydroxypropylcellulose) (HPC)
[15] = dose: 200.0 mg/kg/injection, schedule: Q01DX005 (ip), vehicle: Klucel (hydroxypropylcellulose) (HPC)
[16] = dose: 50.0 mg/kg/injection, schedule: Q01DX009 (ip), vehicle: saline with Tween-80
[17] = dose: 100.0 mg/kg/injection, schedule: Q01DX001 (ip), vehicle: saline with Tween-80
[18] = dose: 200.0 mg/kg/injection, schedule: Q01DX001 (ip), vehicle: saline with Tween-80
[19] = dose: 400.0 mg/kg/injection, schedule: Q01DX001 (ip), vehicle: saline with Tween-80

SMILES: O=Nc1c(=O)[nH]c(O)c2ccccc12
- T/C (dose: 25.0 mg/kg/injection, schedule: Q01DX005 (ip), vehicle: saline with Tween-80): 100 % of control
- T/C [1]: 107 % of control
- T/C [2]: 93 % of control

SMILES: Cc1cc(C)n2ncc(Br)c2n1
- T/C [1]: 100 % of control
- T/C [2]: 100 % of control
- T/C [3]: 94 % of control

SMILES: C[n+]1ccccc1-c1ccc[n+](CCCC[n+]2cccc(-c3cccc[n+]3C)c2)c1
- T/C [4]: 106 % of control
- T/C [5]: 116 % of control

SMILES: C=CC(=O)NCCCCCC(=O)O
- T/C [6]: 103 % of control
- T/C [7]: 98 % of control
- T/C [8]: 103 % of control

SMILES: CCOC(=O)CCC1(C(=O)OC)C(=O)CCCCCCC1C(=O)OC (stereo not drawn)
- T/C [9]: 95 % of control
- T/C [10]: 100 % of control
- T/C [11]: 100 % of control

SMILES: O=C1Sc2ccccc2Cn2cccc21
- T/C [4]: 108 % of control
- T/C [5]: 108 % of control
- T/C [12]: 123 % of control

SMILES: Cc1cc(NCCN(C(C)C)C(C)C)nc(Nc2nc3cc(Cl)c(Cl)cc3[nH]2)n1
- T/C (dose: 6.25 mg/kg/injection, schedule: Q01DX009 (ip), vehicle: saline sonified): 100 % of control
- T/C (dose: 12.5 mg/kg/injection, schedule: Q01DX009 (ip), vehicle: saline sonified): 100 % of control

SMILES: Cc1cn(C)c2c1-c1c(cnn1-c1ccccc1)CC2
- T/C (dose: 100.0 mg/kg/injection, schedule: Q04DX003 (ip), vehicle: Klucel (hydroxypropylcellulose) (HPC)): 100 % of control
- T/C (dose: 200.0 mg/kg/injection, schedule: Q04DX003 (ip), vehicle: Klucel (hydroxypropylcellulose) (HPC)): 102 % of control
- T/C (dose: 400.0 mg/kg/injection, schedule: Q04DX003 (ip), vehicle: Klucel (hydroxypropylcellulose) (HPC)): 93 % of control

SMILES: O=C(O)CCCc1cccc2c1CCCC2
- T/C [13]: 102 % of control
- T/C [14]: 100 % of control
- T/C [15]: 100 % of control

SMILES: O=C(NCCCl)Nc1ccn(C(=O)NCCCl)c(=O)n1
- T/C [1]: 95 % of control
- T/C [2]: 100 % of control

SMILES: CCCCCCCCCCC(=O)CCCCC
- T/C (dose: 100.0 mg/kg/injection, schedule: Q04DX003 (ip), vehicle: other): 104 % of control
- T/C (dose: 200.0 mg/kg/injection, schedule: Q04DX003 (ip), vehicle: other): 109 % of control
- T/C (dose: 400.0 mg/kg/injection, schedule: Q04DX003 (ip), vehicle: other): 113 % of control

SMILES: COc1ccc(-c2oc3cc(OC)c(OC)c(OC)c3c(=O)c2O)cc1O
- T/C (dose: 25.0 mg/kg/injection, schedule: Q04DX003 (ip), vehicle: saline with Tween-80): 87 % of control
- T/C (dose: 50.0 mg/kg/injection, schedule: Q04DX003 (ip), vehicle: saline with Tween-80): 105 % of control
- T/C (dose: 100.0 mg/kg/injection, schedule: Q04DX003 (ip), vehicle: saline with Tween-80): 97 % of control
- T/C (dose: 200.0 mg/kg/injection, schedule: Q04DX003 (ip), vehicle: saline with Tween-80): 99 % of control

SMILES: Cc1cc2c3c(c1)C(C(F)(F)F)(C(F)(F)F)OI3OC2(C(F)(F)F)C(F)(F)F
- T/C (dose: 25.0 mg/kg/injection, schedule: Q01DX005 (ip), vehicle: Klucel (hydroxypropylcellulose) (HPC)): 95 % of control
- T/C [13]: 95 % of control
- T/C [14]: 96 % of control
- T/C [15]: 97 % of control

SMILES: CCC(CC)NCCNc1cc(OC)cc2cccnc12
- T/C (dose: 12.5 mg/kg/injection, schedule: Q01DX005 (ip), vehicle: saline): 109 % of control
- T/C (dose: 25.0 mg/kg/injection, schedule: Q01DX005 (ip), vehicle: saline): 108 % of control
- T/C (dose: 50.0 mg/kg/injection, schedule: Q01DX005 (ip), vehicle: saline): 100 % of control and 103 % of control

SMILES: NCCC(N)=O
- T/C [7]: 100 % of control
- T/C (dose: 100.0 mg/kg/injection, schedule: Q04DX003 (ip), vehicle: saline sonified): 109 % of control
- T/C [8]: 95 % of control
- T/C (dose: 200.0 mg/kg/injection, schedule: Q04DX003 (ip), vehicle: saline sonified): 100 % of control
- T/C (dose: 400.0 mg/kg/injection, schedule: Q01DX009 (ip), vehicle: saline): 100 % of control
- T/C (dose: 400.0 mg/kg/injection, schedule: Q04DX003 (ip), vehicle: saline sonified): 100 % of control

SMILES: CC/C(=N/NS(=O)(=O)c1ccc(C)cc1)c1ccc(C(C)(C)C)cc1
- T/C [6]: 99 % of control and 96 % of control
- T/C [7]: 102 % of control
- T/C [8]: 102 % of control and 87 % of control

SMILES: O=c1c2ccccc2c(=O)c2c1ccc1[nH]c3ccccc3n(-c3ccccc3)c12
- T/C [13]: 101 % of control
- T/C [14]: 100 % of control
- T/C [15]: 100 % of control

SMILES: O=C(/C=C(\NC1CCCCC1)C(=O)c1ccccc1)c1ccccc1
- T/C [9]: 90 % of control
- T/C [10]: 90 % of control
- T/C [11]: 100 % of control

SMILES: COC1=CC(=O)c2ncccc2C1=O
- T/C (dose: 1.56 mg/kg/injection, schedule: Q01DX009 (ip), vehicle: DMSO): 101 % of control
- T/C (dose: 3.13 mg/kg/injection, schedule: Q01DX009 (ip), vehicle: DMSO): 100 % of control
- T/C (dose: 6.25 mg/kg/injection, schedule: Q01DX009 (ip), vehicle: DMSO): 100 % of control
- T/C (dose: 12.5 mg/kg/injection, schedule: Q01DX009 (ip), vehicle: DMSO): 111 % of control and 96 % of control
- T/C (dose: 25.0 mg/kg/injection, schedule: Q01DX009 (ip), vehicle: DMSO): 101 % of control and 113 % of control

SMILES: CCOC(=O)c1c(C(=O)OCC)c2cccn2c2c1cnn2-c1ccccc1
- T/C [4]: 99 % of control
- T/C [5]: 93 % of control
- T/C [12]: 91 % of control

SMILES: O=C(CCN1CCCCC1)Nc1ccc(F)cc1F
- T/C [1]: 97 % of control
- T/C [2]: 99 % of control
- T/C [3]: 100 % of control

SMILES: C/C=C/c1cc2c(c(=O)o1)C(=O)[C@@H](O)[C@H](C)O2
- T/C (dose: 12.5 mg/kg/injection, schedule: Q01DX009 (ip), vehicle: saline with Tween-80): 101 % of control
- T/C (dose: 25.0 mg/kg/injection, schedule: Q01DX009 (ip), vehicle: saline with Tween-80): 101 % of control
- T/C (dose: 44.0 mg/kg/injection, schedule: Q01DX009 (ip), vehicle: saline with Tween-80): 112 % of control
- T/C [16]: 110 % of control
- T/C (dose: 66.0 mg/kg/injection, schedule: Q01DX009 (ip), vehicle: saline with Tween-80): 121 % of control

SMILES: COCCOC1=C(N2CC2)C(=O)C(OCCOC)=C(N2CC2)C1=O
- T/C (dose: 1.87 mg/kg/injection, schedule: Q01DX009 (ip), vehicle: saline): 204 % of control
- T/C (dose: 2.2 mg/kg/injection, schedule: Q04DX003 (ip), vehicle: saline): 113 % of control
- T/C (dose: 3.3 mg/kg/injection, schedule: Q04DX003 (ip), vehicle: saline): 122 % of control
- T/C (dose: 3.75 mg/kg/injection, schedule: Q01DX009 (ip), vehicle: saline): 118 % of control

SMILES: CCn1cc(C(=O)O)c(=O)c2ccc(C)nc21 (tested in a mixture with another compound)
- T/C (dose: 100.0 mg/kg/injection, schedule: Q04DX002 (ip), vehicle: saline with Tween-80): 99 % of control
- T/C (dose: 200.0 mg/kg/injection, schedule: Q04DX002 (ip), vehicle: saline with Tween-80): 91 % of control

SMILES: NS(=O)(=O)c1cccc(NC(=O)c2ccco2)c1
- T/C (dose: 50.0 mg/kg/injection, schedule: Q01DX009 (ip), vehicle: Klucel (hydroxypropylcellulose) (HPC)): 102 % of control
- T/C (dose: 100.0 mg/kg/injection, schedule: Q01DX009 (ip), vehicle: Klucel (hydroxypropylcellulose) (HPC)): 101 % of control
- T/C (dose: 200.0 mg/kg/injection, schedule: Q01DX009 (ip), vehicle: Klucel (hydroxypropylcellulose) (HPC)): 94 % of control

SMILES: CSc1cnn(-c2ccccc2)[n+]1[O-]
- T/C [1]: 98 % of control
- T/C [2]: 110 % of control
- T/C [3]: 94 % of control

SMILES: CCCC1(C)COC(c2ccc(OC)cc2)OC1 (stereo not drawn)
- T/C [16]: 103 % of control
- T/C [17]: 109 % of control
- T/C [9]: 112 % of control
- T/C [18]: 102 % of control
- T/C [10]: 103 % of control
- T/C [19]: 104 % of control

SMILES: Cc1ccc(-c2nc3n(c2/C=N/NC(N)=S)CCS3)cc1
- T/C [17]: 109 % of control
- T/C [18]: 103 % of control
- T/C [19]: 97 % of control
